According to patent US9914730B2, “Azaquinazoline inhibitors of Atypical protein Kinase C” (Ignyta, Inc., priority 2012, dated 2018):

Each compound was assayed against T1, full-length human PKCι (Homo sapiens, UniProt P41743) (assay: PKCι IC50 IMAP assay, full-length PKCι at 150 μM ATP). Conditions: read-out: IC50 in IMAP assay against full length PKCi at 150 μM ATP.
T1 construct: Recombinant, full-length human PKCι expressed in Sf21 insect cells is also commercially available; purchased; host or cells: Sf21 insect cells
T1 sequence (P41743 1-596): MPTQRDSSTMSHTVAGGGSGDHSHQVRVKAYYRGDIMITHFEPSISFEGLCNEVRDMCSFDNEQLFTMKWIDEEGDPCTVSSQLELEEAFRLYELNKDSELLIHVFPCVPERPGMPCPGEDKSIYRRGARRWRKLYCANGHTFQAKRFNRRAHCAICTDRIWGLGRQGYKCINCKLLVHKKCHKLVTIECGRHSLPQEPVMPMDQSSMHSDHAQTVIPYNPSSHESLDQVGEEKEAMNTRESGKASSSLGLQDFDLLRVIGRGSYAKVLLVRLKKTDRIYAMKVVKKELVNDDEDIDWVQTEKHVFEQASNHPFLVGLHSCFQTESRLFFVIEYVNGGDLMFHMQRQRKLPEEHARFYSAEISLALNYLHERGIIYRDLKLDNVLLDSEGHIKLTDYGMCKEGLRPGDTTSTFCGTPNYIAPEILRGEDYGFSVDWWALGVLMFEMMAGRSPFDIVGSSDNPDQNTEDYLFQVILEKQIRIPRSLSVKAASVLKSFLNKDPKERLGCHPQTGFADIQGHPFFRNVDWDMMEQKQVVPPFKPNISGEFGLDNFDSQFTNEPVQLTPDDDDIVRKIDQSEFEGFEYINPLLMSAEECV
Assay type: biochemical
Procedure, shortened: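 Full-length hPKCι (Sf21) ~15 pM; 5FAM-peptide 100 nM; ATP 150 μM (5× KM^APP); tris pH7.5/MgCl2/EGTA/DTT/Triton, 4% DMSO; 60 min RT; IMAP stop, 2 h; FP 485/530 nm; IC50 from % inhibition curves.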

SMILES	IC50
c1cc(-c2nc(N3CCNCC3)c3c(C4CC4)cncc3n2)c2cc(C3CCOCC3)[nH]c2n1 [Example 2111, 5-Cyclopropyl-4-piperazin-1-yl-2-[2-(tetrahydro-pyran-4-yl)-1H-pyrrolo[2,3-b]pyridin-4-yl]-pyrido[3,4-d]pyrimidine]	< 100 nM
Cc1cc2c(-c3nc(N4CCNCC4)c4c(C5CCC5)cncc4n3)ccnc2[nH]1 [Example 2112, 5-Cyclobutyl-2-(2-methyl-1H-pyrrolo[2,3-b]pyridin-4-yl)-4-piperazin-1-yl-pyrido[3,4-d]pyrimidine]	< 100 nM
c1ccc(C2(c3cc4c(-c5nc(N6CCNCC6)c6c(C7CCC7)cncc6n5)ccnc4[nH]3)CC2)cc1 [Example 2113, 5-Cyclobutyl-2-[2-(1-phenyl-cyclopropyl)-1H-pyrrolo[2,3-b]pyridin-4-yl]-4-piperazin-1-yl-pyrido[3,4-d]pyrimidine]	< 100 nM
FC(F)c1cc2c(-c3nc(N4CCNCC4)c4c(C5CCC5)cncc4n3)ccnc2[nH]1 [Example 2114, 5-Cyclobutyl-2-(2-difluoromethyl-1H-pyrrolo[2,3-b]pyridin-4-yl)-4-piperazin-1-yl-pyrido[3,4-d]pyrimidine]	< 100 nM
CC(C)N1CCC(N(C)c2nc(-c3ccnc(Nc4c(F)cccc4F)c3)nc3cncc(C4CC4)c23)CC1 [Example 2115, {5-Cyclopropyl-2-[2-(2,6-difluoro-phenylamino)-pyridin-4-yl]-pyrido[3,4-d]pyrimidin-4-yl}-(1-isopropyl-piperidin-4-yl)-methyl-amine]	< 100 nM
c1cc(-c2nc(N3CCNCC3)c3c(C4CC4)cncc3n2)cc(Nc2ccc3nonc3c2)n1 [Example 2116, Benzo[1,2,5]oxadiazol-5-yl-[4-(5-cyclopropyl-4-piperazin-1-yl-pyrido[3,4-d]pyrimidin-2-yl)-pyridin-2-yl]-amine]	< 100 nM
FC(F)(F)c1cc2c(-c3nc(N4CCNCC4)c4c(Br)cncc4n3)ccnc2[nH]1 [Example 2117, 5-Bromo-4-piperazin-1-yl-2-(2-trifluoromethyl-1H-pyrrolo[2,3-b]pyridin-4-yl)-pyrido[3,4-d]pyrimidine]	< 100 nM
CC(C)(C)c1cc2c(-c3nc(N4CCNCC4)c4c(C5CC5)cnc(Cl)c4n3)ccnc2[nH]1 [Example 2118, 2-(2-tert-Butyl-1H-pyrrolo[2,3-b]pyridin-4-yl)-8-chloro-5-cyclopropyl-4-piperazin-1-yl-pyrido[3,4-d]pyrimidine]	< 100 nM
CC(C)(C)c1cc2c(-c3nc(N4CCNCC4)c4c(C5CC5)cnc(F)c4n3)ccnc2[nH]1 [Example 2119, 2-(2-tert-Butyl-1H-pyrrolo[2,3-b]pyridin-4-yl)-5-cyclopropyl-8-fluoro-4-piperazin-1-yl-pyrido[3,4-d]pyrimidine]	< 100 nM
CC(C)(C)c1cc2c(-c3nc(N4CCNCC4)c4c(Br)cncc4n3)ccnc2[nH]1 [Example 2120, 5-Bromo-2-(2-tert-butyl-1H-pyrrolo[2,3-b]pyridin-4-yl)-4-piperazin-1-yl-pyrido[3,4-d]pyrimidine]	< 100 nM
CN(c1nc(-c2ccnc(Nc3c(F)cccc3F)c2)nc2cncc(C3CC3)c12)C1CCN(CC(F)F)CC1 [Example 2123, {5-Cyclopropyl-2-[2-(2,6-difluoro-phenylamino)-pyridin-4-yl]-pyrido[3,4-d]pyrimidin-4-yl}-[1-(2,2-difluoro-ethyl)-piperidin-4-yl]-methyl-amine]	100 to 1000 nM
c1cc(-c2nc(N3CCNCC3)c3c(C4CC4)cncc3n2)cc(Nc2ccc3c(c2)CCC3)n1 [Example 2124, [4-(5-Cyclopropyl-4-piperazin-1-yl-pyrido[3,4-d]pyrimidin-2-yl)-pyridin-2-yl]-indan-5-yl-amine]	< 100 nM
CC1(C)CN(c2nc(-c3ccnc(Nc4nc(F)c(C5CC5)cc4F)c3)nc3cncc(C4CC4)c23)CCN1 [Example 2125, (5-Cyclopropyl-3,6-difluoro-pyridin-2-yl)-{4-[5-cyclopropyl-4-(3,3-dimethyl-piperazin-1-yl)-pyrido[3,4-d]pyrimidin-2-yl]-pyridin-2-yl}-amine]	< 100 nM
O=C(Nc1cc(-c2nc(N3CCNCC3)c3c(C4CC4)cncc3n2)ccn1)C(F)(F)c1ccccc1 [Example 2126, N-[4-(5-Cyclopropyl-4-piperazin-1-yl-pyrido[3,4-d]pyrimidin-2-yl)-pyridin-2-yl]-2,2-difluoro-2-phenyl-acetamide]	< 100 nM
FC1(c2cc3c(-c4nc(N5CCNCC5)c5c(C6CC6)cncc5n4)ccnc3[nH]2)CC1 [Example 2127, 5-Cyclopropyl-2-[2-(1-fluoro-cyclopropyl)-1H-pyrrolo[2,3-b]pyridin-4-yl]-4-piperazin-1-yl-pyrido[3,4-d]pyrimidine]	< 100 nM
CN1CCC(Sc2nc(-c3ccnc(Nc4c(F)cccc4F)c3)nc3cncc(C4CC4)c23)CC1 [Example 2128, {4-[5-Cyclopropyl-4-(1-methyl-piperidin-4-ylsulfanyl)-pyrido[3,4-d]pyrimidin-2-yl]-pyridin-2-yl}-(2,6-difluoro-phenyl)-amine]	100 to 1000 nM
CN1CCC(N(C)c2nc(-c3ccnc(Nc4ncc(F)cc4F)c3)nc3cncc(C4CC4)c23)CC1 [Example 2129, {5-Cyclopropyl-2-[2-(3,5-difluoro-pyridin-2-ylamino)-pyridin-4-yl]-pyrido[3,4-d]pyrimidin-4-yl}-methyl-(1-methyl-piperidin-4-yl)-amine]	< 100 nM
Cn1cc(-c2ccc(Nc3cc(-c4nc(N5CCNCC5)c5c(C6CC6)cncc5n4)ccn3)c(F)c2)cn1 [Example 2130, [4-(5-Cyclopropyl-4-piperazin-1-yl-pyrido[3,4-d]pyrimidin-2-yl)-pyridin-2-yl]-[2-fluoro-4-(1-methyl-1H-pyrazol-4-yl)-phenyl]-amine]	< 100 nM
c1ccc(Nc2cc(-c3nc(N4CC5CNCC5C4)c4c(C5CC5)cncc4n3)ccn2)cc1 (stereo not shown) [Example 2131, {4-[5-Cyclopropyl-4-(hexahydro-pyrrolo[3,4-c]pyrrol-2-yl)-pyrido[3,4-d]pyrimidin-2-yl]-pyridin-2-yl}-phenyl-amine]	< 100 nM
Fc1cnc(Nc2cc(-c3nc(N4CC5CNCC5C4)c4c(C5CC5)cncc4n3)ccn2)c(F)c1 (stereo not shown) [Example 2132, {4-[5-Cyclopropyl-4-(hexahydro-pyrrolo[3,4-c]pyrrol-2-yl)-pyrido[3,4-d]pyrimidin-2-yl]-pyridin-2-yl}-(3,5-difluoro-pyridin-2-yl)-amine]	< 100 nM
FC(F)(F)c1nc2cc(Nc3cc(-c4nc(N5CCNCC5)c5c(C6CC6)cncc5n4)ccn3)ccc2o1 [Example 2133, [4-(5-Cyclopropyl-4-piperazin-1-yl-pyrido[3,4-d]pyrimidin-2-yl)-pyridin-2-yl]-(2-trifluoromethyl-benzooxazol-5-yl)-amine]	< 100 nM
FC(F)(F)c1cc2c(-c3nc(SC4CCNCC4)c4c(C5CC5)cncc4n3)ccnc2[nH]1 [Example 2134, 5-Cyclopropyl-4-(piperidin-4-ylsulfanyl)-2-(2-trifluoromethyl-1H-pyrrolo[2,3-b]pyridin-4-yl)-pyrido[3,4-d]pyrimidine]	< 100 nM
CN(c1nc(-c2ccnc3[nH]c(C(F)(F)F)cc23)nc2c(Cl)ncc(C3CC3)c12)C1CCNCC1 [Example 2136, [8-Chloro-5-cyclopropyl-2-(2-trifluoromethyl-1H-pyrrolo[2,3-b]pyridin-4-yl)-pyrido[3,4-d]pyrimidin-4-yl]-methyl-piperidin-4-yl-amine]	< 100 nM
c1ccc2c(c1)CCC(Nc1cc(-c3nc(N4CCNCC4)c4c(C5CC5)cncc4n3)ccn1)C2 (stereo not shown) [Example 2137, [4-(5-Cyclopropyl-4-piperazin-1-yl-pyrido[3,4-d]pyrimidin-2-yl)-pyridin-2-yl]-(1,2,3,4-tetrahydro-naphthalen-2-yl)-amine]	< 100 nM
CN(c1nc(-c2ccnc(Nc3ccc4ccccc4n3)c2)nc2cncc(C3CC3)c12)C1CCNCC1 [Example 2138, {5-Cyclopropyl-2-[2-([D4],[D3]uinolin-2-ylamino)-pyridin-4-yl]-pyrido[3,4-d]pyrimidin-4-yl}-methyl-piperidin-4-yl-amine]	< 100 nM
CN(CC1CCNCC1)c1nc(-c2ccnc3[nH]c(C(F)(F)F)cc23)nc2cncc(C3CC3)c12 [Example 2139, [5-Cyclopropyl-2-(2-trilfuoromethyl-1H-pyrrolo[2,3-b]pyridin-4-yl)-pyrido[3,4-d]pyrimidin-4-yl]-methyl-piperidin-4-ylmethyl-amine]	< 100 nM
O[C@@H]1Cc2ccccc2[C@@H]1Nc1cc(-c2nc(N3CCNCC3)c3c(C4CC4)cncc3n2)ccn1 [Example 2140, (1S,2R)-1-[4-(5-Cyclopropyl-4-piperazin-1-yl-pyrido[3,4-d]pyrimidin-2-yl)-pyridin-2-ylamino]-indan-2-ol]	< 100 nM
O[C@H]1Cc2ccccc2[C@@H]1Nc1cc(-c2nc(N3CCNCC3)c3c(C4CC4)cncc3n2)ccn1 [Example 2141, (1S,2S)-1-[4-(5-Cyclopropyl-4-piperazin-1-yl-pyrido[3,4-d]pyrimidin-2-yl)-pyridin-2-ylamino]-indan-2-ol]	< 100 nM
